Literature values as cited in US8765470B2, “Reprogramming immortalized B-cells to induced pluripotent stem cells” (Cellular Dynamics International, Inc., priority 2010, dated 2014).

How the values were obtained:
[1] = tested on: EBV replication; conditions: in vitro; Lin et al., 1983
[2] = tested on: Epstein-Barr virus (EBV); conditions: anti-EBV activity; Kira et al., 2000; read-out: 50% effective concentration
[3] = Kira et al., 2000
[4] = tested on: EBV; conditions: Norseen et al., 2009

Row | SMILES | inhibition of EBV replication [1] | effect on EBV proliferation [4] | also measured
1 | Nc1nc(=O)n([C@@H]2O[C@H](CO)[C@@H](O)[C@@H]2F)cc1I [1-(2-deoxy-2-fluoro-beta-D-arabinofuranosyl)-5-iodocytosine] | potent inhibitors | – | –
2 | O=c1[nH]c(=O)n([C@@H]2CO[C@H](CO)O2)cc1I [beta-L-5-Iododioxolane uracil] | – | – | EC50 [2]: 30 nM; 50% cytotoxic concentration [3]: 1,000 microM
3 | Cc1cn([C@@H]2O[C@H](CO)[C@@H](O)[C@@H]2F)c(=O)[nH]c1=O [1-(2-deoxy-2-fluoro-beta-D-arabinofuranosyl)-5-methyluracil] | potent inhibitors | – | –
4 | C[n+]1cccc(-c2c3nc(c(-c4ccc[n+](C)c4)c4ccc([nH]4)c(-c4ccc[n+](C)c4)c4nc(c(-c5ccc[n+](C)c5)c5ccc2[nH]5)C=C4)C=C3)c1 [TMPyP3] | – | block EBV proliferation | –
5 | CN(C)c1ccc(Nc2c3ccc(NC(=O)CCN4CCCC4)cc3nc3cc(NC(=O)CCN4CCCC4)ccc23)cc1 [BRACO-19] | – | block EBV proliferation | –
6 | O=c1[nH]c(=O)n([C@H]2C[C@H](O)[C@@H](CO)O2)cc1/C=C/Br [E-5-(2-bromovinyl)-2′-deoxyuridine] | potent inhibitors | – | –
7 | C[n+]1ccc(-c2c3nc(c(-c4cc[n+](C)cc4)c4ccc([nH]4)c(-c4cc[n+](C)cc4)c4ccc([nH]4)c(-c4cc[n+](C)cc4)c4nc2C=C4)C=C3)cc1 [TMPyP4] | – | block EBV proliferation | –
